Test results: patent US7714146B2, “Azulene-oxindole compounds as multiple-kinase inhibitors and useful as anticancer agents” (Industrial Technology Research Institute, priority 2006, dated 2010)
pIC50: −log10 of the molar value.

Assays:
Type in all cases: biochemical
[1] = biological target: T1, human c-KIT (Thr544-Val976) (Homo sapiens, UniProt P10721); test: c-KIT kinase assay (HTScan kit, DELFIA); conditions: for inhibition at 0.1 µM: compound at 0.1 μM, read-out: c-KIT 0.1 μM, % of inhibition relative to control; for inhibition at 1 µM: compound at 1 μM, read-out: c-KIT 1 μM, % of inhibition relative to control; for pIC50: read-out: c-KIT kinase inhibition (IC50)
T1 construct: human c-KIT (Thr544-Val976); GST (N); purchased Cell Signaling Technology; host or cells: baculovirus expression system
Protocol: (§1) Compounds 1-100 were treated for their efficacy in inhibiting activities of FLT-3, c-KIT, KDR/Flk-1, PDGFR-beta, EGFR, and PKC kinases by biochemical DELFIA (Dissociation Enhanced Lanthanide FIA) assays according to the procedure described below. The assays were conducted by, Division of Cell Engineering, Biomedical Engineering Research Laboratories, Industrial Technology Research Institute, Bldg. 53, 195, sec. 4, Chung Hsing Rd. Chutung, Hsinchu, Taiwan 310, R.O.C.
(§2) The c-KIT assay was conducted following the protocol described in Protocol for HTScan® c-KIT Kinase Assay Kit (Cell Signaling Technology®). The assay was conducted under the following conditions: c-KIT source: The GST-c-KIT fusion protein was produced using a baculovirus expression system with a construct expressing human c-KIT (Thr544-Val976) with an amino-terminal GST tag, substrate: 1.5 μM This biotinylated peptide contains the residues surrounding Tyr-996 of KDR, vehicle: 1% DMSO, pre-incubation time/temperature: 5 minutes at room temperature, incubation time/temperature: 30 minutes at room temperature, incubation buffer: 60 mM HEPES pH 7.5, 5 mM MgCl2, 5 mM MnCl2, 3 μM Na3VO4, 1.25 mM DTT, 20 μM ATP, and quantitative method: DELFIA® Assay.

[2] = biological target: T2, human FLT-3 (Arg571-Ser993) (Homo sapiens, UniProt P36888); test: FLT-3 kinase assay (HTScan kit, DELFIA); conditions: for inhibition at 1 µM: compound at 1 μM, read-out: FLT-3 1 μM, % of inhibition relative to control; for inhibition at 0.1 µM: compound at 0.1 μM, read-out: FLT-3 0.1 μM, % of inhibition relative to control; for pIC50: read-out: FLT-3 kinase inhibition (IC50)
T2 construct: human FLT-3 (Arg571-Ser993); GST (N); purchased Cell Signaling Technology; host or cells: baculovirus expression system
T2 sequence (P36888 571-993): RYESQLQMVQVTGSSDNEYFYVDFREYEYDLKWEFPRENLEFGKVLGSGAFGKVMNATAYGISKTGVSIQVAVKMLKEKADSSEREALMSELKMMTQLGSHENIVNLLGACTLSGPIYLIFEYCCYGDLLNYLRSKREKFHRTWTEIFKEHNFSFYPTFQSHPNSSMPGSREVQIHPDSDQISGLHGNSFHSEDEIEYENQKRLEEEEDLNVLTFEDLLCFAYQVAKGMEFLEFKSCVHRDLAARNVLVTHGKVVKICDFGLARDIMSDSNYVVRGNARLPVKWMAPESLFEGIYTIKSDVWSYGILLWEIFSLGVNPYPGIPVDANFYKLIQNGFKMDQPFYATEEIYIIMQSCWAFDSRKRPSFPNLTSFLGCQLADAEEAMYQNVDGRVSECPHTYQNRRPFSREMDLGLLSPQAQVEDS
Protocol: as §1
as §2, with “FLT-3” for “c-KIT”, “GST-kinase” for “GST-c-KIT”, “FLT-3 (Arg571-Ser993) (GenBank accession No. NM_004119)” for “c-KIT (Thr544-Val976)”, “Gastrin Precursor Biotinylated Peptide (with Tyr87 as phosphorylation site),” for “This biotinylated peptide contains the residues surrounding Tyr-996 of KDR,”

[3] = biological target: T3, human VEGFR-2 (Val789-Val1356) (Homo sapiens, UniProt P35968); test: KDR kinase assay (HTScan VEGFR-2 kit, DELFIA); conditions: for inhibition at 1 µM: compound at 1 μM, read-out: KDR 1 μM, % of inhibition relative to control; for inhibition at 0.1 µM: compound at 0.1 μM, read-out: KDR 0.1 μM, % of inhibition relative to control
T3 construct: human VEGFR-2 (Val789-Val1356); GST (N); purchased Cell Signaling Technology; host or cells: baculovirus expression system
Protocol: as §1
as §2, with “The KDR” for “The c-KIT”, “HTScan® VEGFR-2” for “HTScan® c-KIT”, “conditions: KDR” for “conditions: c-KIT”, “The GST-Kinase” for “The GST-c-KIT”, “human VEGFR-2 (Val789-Val1356) (GenBank Accession No. NM_002253)” for “human c-KIT (Thr544-Val976)”, “μM Gastrin Precursor Biotinylated Peptide (with Tyr87 as phosphorylation site),” for “μM This biotinylated peptide contains the residues surrounding Tyr-996 of KDR,”

T1 sequence (P10721 544-976): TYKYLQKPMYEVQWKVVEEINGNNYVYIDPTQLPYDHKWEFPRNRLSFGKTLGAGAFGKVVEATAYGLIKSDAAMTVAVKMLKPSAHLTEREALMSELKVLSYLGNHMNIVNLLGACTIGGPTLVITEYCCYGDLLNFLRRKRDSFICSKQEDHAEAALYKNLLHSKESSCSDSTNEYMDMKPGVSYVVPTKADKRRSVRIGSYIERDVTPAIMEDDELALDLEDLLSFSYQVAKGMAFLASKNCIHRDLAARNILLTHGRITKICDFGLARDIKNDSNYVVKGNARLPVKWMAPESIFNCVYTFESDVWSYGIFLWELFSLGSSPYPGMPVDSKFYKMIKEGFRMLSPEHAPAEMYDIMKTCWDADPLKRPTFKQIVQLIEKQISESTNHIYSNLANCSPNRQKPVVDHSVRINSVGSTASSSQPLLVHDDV
T3 sequence (P35968 789-1356): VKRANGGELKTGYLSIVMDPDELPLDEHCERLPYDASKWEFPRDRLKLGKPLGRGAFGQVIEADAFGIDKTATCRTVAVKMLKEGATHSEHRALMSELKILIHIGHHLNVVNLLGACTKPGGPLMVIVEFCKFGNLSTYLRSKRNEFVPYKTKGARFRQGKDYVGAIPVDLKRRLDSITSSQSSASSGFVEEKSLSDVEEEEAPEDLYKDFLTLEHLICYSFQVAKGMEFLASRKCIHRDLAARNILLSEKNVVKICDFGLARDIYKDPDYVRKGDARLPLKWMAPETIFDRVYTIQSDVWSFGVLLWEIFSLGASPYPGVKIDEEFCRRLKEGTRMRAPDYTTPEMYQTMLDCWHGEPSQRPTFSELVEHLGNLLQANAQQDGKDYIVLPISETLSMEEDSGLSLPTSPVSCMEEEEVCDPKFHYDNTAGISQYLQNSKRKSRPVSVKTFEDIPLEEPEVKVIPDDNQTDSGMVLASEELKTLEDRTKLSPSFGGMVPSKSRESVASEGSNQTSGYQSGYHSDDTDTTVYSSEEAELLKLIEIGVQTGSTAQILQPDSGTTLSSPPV

| SMILES | inhibition at 0.1 µM [1] | inhibition at 1 µM [1] | inhibition at 1 µM [2] | inhibition at 1 µM [3] | inhibition at 0.1 µM [2] | inhibition at 0.1 µM [3] | pIC50 [1] | pIC50 [2] |
| --- | --- | --- | --- | --- | --- | --- | --- | --- |
| CN(C)CCNC(=O)c1cc(/C=C2/C(=O)Nc3ccc(F)cc32)c2cccccc1-2 [Compound 67, 3-(5-Fluoro-2-oxo-1,2-dihydro-indol-3-ylidenemethyl)-azulene-1-carboxylic acid (2-dimethylamino-ethyl)-amide] | 30.2% | 30.2% | 14% | 7.4% | – | – | – | – |
| O=C1Nc2cc(Br)ccc2/C1=C\c1ccc2cccccc1-2 [Compound 28, 3-Azulen-1-ylmethylene-6-bromo-1,3-dihydro-indol-2-one] | 6.8% | 6.8% | 24.5% | 22.4% | 1.9% | – | – | – |
| COC(=O)c1cc(/C=C2\C(=O)Nc3ccc(F)cc32)c2cccccc1-2 [Compound 76, 3-(5-Fluoro-2-oxo-1,2-dihydro-indol-3-ylidenemethyl)-azulene-1-carboxylic acid methyl ester] | 28.2% | 28.2% | – | – | – | – | – | – |
| O=C1Nc2ccccc2/C1=C\c1ccc2cccccc1-2 [Compound 19, 3-Azulen-1-ylmethylene-1,3-dihydro-indol-2-one] | 0.6% | 0.6% | 7.6% | 22.1% | – | 33.8% | – | – |
| CNS(=O)(=O)c1ccc2c(c1)/C(=C\c1cc(C)c3c(OCCCN(C)C)ccccc1-3)C(=O)N2 [Compound 88, 3-[4-(3-Dimethylamino-propoxy)-3-methyl-azulen-1-ylmethylene]-2-oxo-2,3-dihydro-1H-indole-5-sulfonic acid methylamide] | 19.3% | 19.3% | 47.3% | 16.8% | 24.2% | – | – | – |
| COc1ccc(CN2C(=O)/C(=C/c3cc(C)c4cc(C(C)C)ccc(C)c3-4)c3ccccc32)cc1 [Compound 73, 3-(5-Isopropyl-3,8-dimethyl-azulen-1-ylmethylene)-1-(4-methoxy-benzyl)-1,3-dihydro-indol-2-one] | – | – | 32.8% | 52.4% | 33.9% | 40.4% | – | – |
| Cc1cc(C=C2C(=O)Nc3ccc(S(=O)(=O)Nc4ccccn4)cc32)c2cccccc1-2 [Compound 77] | 23.4% | 23.4% | – | – | – | – | – | – |
| O=C1Nc2ccc(F)cc2/C1=C\c1cc2cccccc-2c1F [Compound 56, 5-Fluoro-3-(1-fluoro-azulen-2-ylmethylene)-1,3-dihydro-indol-2-one] | 34.8% | 34.8% | 53% | 34.2% | 12.6% | 35.4% | – | – |
| Cc1cc(/C=C2/C(=O)N(C(c3ccccc3)c3ccccc3)c3ccccc32)c2c(C)ccc(C(C)C)cc1-2 [Compound 14, 1-Benzhydryl-3-(5-isopropyl-3,8-dimethyl-azulen-1-ylmethylene)-1,3-dihydro-indol-2-one] | 31.5% | 31.5% | 6% | 69.2% | – | 17.1% | – | – |
| O=C1Nc2ccc(F)cc2/C1=C/c1c2cccccc-2oc1=O [Compound 62, 5-Fluoro-3-(2-oxo-2H-cyclohepta[b]furan-3-ylmethylene)-1,3-dihydro-indol-2-one] | 45.6% | 45.6% | 74.9% | 35.1% | 68.3% | 21.9% | – | – |
| Cc1c2cccccc-2c(C)c1/C=C1/C(=O)Nc2ccc(F)cc21 [Compound 66, 3-(1,3-Dimethyl-azulen-2-ylmethylene)-5-fluoro-1,3-dihydro-indol-2-one] | 33.7% | 33.7% | 19.6% | 40.6% | 15.8% | 14.8% | – | – |
| Cc1cc(/C=C2\C(=O)Nc3ccc(F)cc32)c2ccccc(OCCCN(C)C)c1-2 [Compound 95, 3-[4-(3-Dimethylamino-propoxy)-3-methyl-azulen-1-ylmethylene]-5-fluoro-1,3-dihydro-indol-2-one] | 65.1% | 65.1% | 98.4% | 93.6% | 70.9% | 35.5% | 6.80 | 8.03 |
| Cc1cc(C=C2C(=O)Nc3ccc(F)cc32)c2ccccc(OCCCN3CCOCC3)c1-2 (mixture of isomers) [Compound 87, 5-Fluoro-3-[3-methyl-4-(3-morpholin-4-yl-propoxy)-azulen-1-ylmethylene]-1,3-dihydro-indol-2-one] | 71% | 71% | 85.7% | 11.5% | 56.9% | 1.9% | 7.75 | 8.32 |
| CN(C)Cc1cc(/C=C2/C(=O)Nc3ccc(F)cc32)c2cccccc1-2 [Compound 65, 3-(3-Dimethylaminomethyl-azulen-1-ylmethylene)-5-fluoro-1,3-dihydro-indol-2-one] | 51.3% | 51.3% | 30.9% | 46.9% | 23.3% | 46.8% | – | – |
| O=C1/C(=C\c2ccc3cccccc2-3)c2ccccc2N1C(c1ccccc1)c1ccccc1 [Compound 4, 3-Azulen-1-ylmethylene-1-benzhydryl-1,3-dihydro-indol-2-one] | – | – | 14.7% | – | – | – | – | – |
| Cc1cc(/C=C2/C(=O)N(Cc3ccc(C#N)cc3)c3ccccc32)c2c(C)ccc(C(C)C)cc1-2 [Compound 74, 4-[3-(5-Isopropyl-3,8-dimethyl-azulen-1-ylmethylene)-2-oxo-2,3-dihydro-indol-1-ylmethyl]-benzonitrile] | – | – | 69.4% | 70.9% | 45.8% | 5.1% | – | – |
| COC(=O)C1C2=CC=CC=C(OC)C2=C(/C=C2\C(=O)Nc3ccc(F)cc32)C1OC (stereo not drawn) [Compound 69, 3-(5-Fluoro-2-oxo-1,2-dihydro-indol-3-ylidenemethyl)-2,4-dimethoxy-1,2-dihydro-azulene-1-carboxylic acid methyl ester] | – | – | – | 42.5% | 17.2% | 32.9% | – | – |
| O=C1Nc2ccc(Cl)cc2/C1=C/c1ccc2cccccc1-2 [Compound 23, 3-Azulen-1-ylmethylene-5-chloro-1,3-dihydro-indol-2-one] | – | – | 43.4% | 28.3% | 18.6% | 39.5% | – | – |
